In ChEMBL document CHEMBL2401662, “The synthesis of neurotensin antagonist SR 48692 for prostate cancer research” (Bioorg Med Chem, 2013) one finds Activity, IC50 and Ki data, which are given here for 1 compound.

Test [1] relates to SK-OV-3. Briefly: Cytotoxicity against human SKOV3 cells at 100 uM by MTS assay. It is filed as functional, cell-based. On the technique in general: Tetrazolium assays rely on reduction of a dye to a coloured formazan, in cell work by metabolically active cells.
Test [2] deals with LNCaP. Briefly: Cytotoxicity against human biculamide-resistant LNCAP cells at >/= 50 uM after 5 days by CellTitre Glo assay. It is filed as functional, cell-based.
Test [3] concerns the target T1, Sortilin (Homo sapiens, UniProt Q99523).
T1 sequence (Q99523 whole entry): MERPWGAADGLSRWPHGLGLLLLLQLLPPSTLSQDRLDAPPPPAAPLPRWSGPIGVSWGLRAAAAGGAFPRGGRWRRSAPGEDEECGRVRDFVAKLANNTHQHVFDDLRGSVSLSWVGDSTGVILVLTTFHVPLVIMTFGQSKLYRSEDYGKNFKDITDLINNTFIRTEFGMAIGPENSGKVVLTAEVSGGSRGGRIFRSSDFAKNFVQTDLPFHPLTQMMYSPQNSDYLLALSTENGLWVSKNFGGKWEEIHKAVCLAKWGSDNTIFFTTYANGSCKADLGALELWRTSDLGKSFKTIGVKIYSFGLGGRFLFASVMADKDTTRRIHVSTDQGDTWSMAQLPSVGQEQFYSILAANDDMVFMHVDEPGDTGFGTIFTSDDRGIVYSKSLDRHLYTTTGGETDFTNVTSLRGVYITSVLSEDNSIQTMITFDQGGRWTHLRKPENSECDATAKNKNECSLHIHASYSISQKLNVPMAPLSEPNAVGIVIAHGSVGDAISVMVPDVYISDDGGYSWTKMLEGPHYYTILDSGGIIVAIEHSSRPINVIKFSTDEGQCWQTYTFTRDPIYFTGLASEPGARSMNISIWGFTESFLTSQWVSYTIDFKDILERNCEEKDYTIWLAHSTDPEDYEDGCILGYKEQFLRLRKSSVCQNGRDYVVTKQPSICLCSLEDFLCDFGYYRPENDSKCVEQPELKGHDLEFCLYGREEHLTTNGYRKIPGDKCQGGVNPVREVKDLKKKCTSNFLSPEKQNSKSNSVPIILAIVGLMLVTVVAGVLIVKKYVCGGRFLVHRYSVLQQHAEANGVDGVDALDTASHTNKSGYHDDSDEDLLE
The experiment in a line: Binding affinity to NTR3 (unknown origin).

For test [4], the target named is Neurotensin receptor type 2 (Homo sapiens, UniProt O95665). Briefly: Binding affinity to NTR2 (unknown origin).
Chain of Neurotensin receptor type 2 (O95665 whole entry): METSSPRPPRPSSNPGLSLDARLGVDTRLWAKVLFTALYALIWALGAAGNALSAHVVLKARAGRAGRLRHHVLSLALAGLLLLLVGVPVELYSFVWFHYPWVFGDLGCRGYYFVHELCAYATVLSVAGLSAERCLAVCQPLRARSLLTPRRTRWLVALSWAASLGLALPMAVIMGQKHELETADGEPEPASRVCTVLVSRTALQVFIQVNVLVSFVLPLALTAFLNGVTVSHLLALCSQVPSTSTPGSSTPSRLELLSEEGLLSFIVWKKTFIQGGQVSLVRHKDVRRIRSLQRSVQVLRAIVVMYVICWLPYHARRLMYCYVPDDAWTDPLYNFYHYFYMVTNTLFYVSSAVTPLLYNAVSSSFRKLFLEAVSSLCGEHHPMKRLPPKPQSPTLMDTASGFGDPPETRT
For test [5], the system named is LNCaP C4-2B. Briefly: Cytotoxicity against human C4-2B cells at >/= 50 uM after 5 days by CellTitre Glo assay. It is filed as functional, cell-based.
For test [6], the system named is SK-OV-3. The experiment in a line: Cytotoxicity against human SKOV3 cells at < 100 uM by MTS assay. It is filed as functional, cell-based.
Test [7] has as its target Neurotensin receptor type 1 (Rattus norvegicus, UniProt P20789). The experiment in a line: Displacement of [125I]NT from rat NTR1 transfected in mouse LTK cells. It is filed as cell-based. (In general: Displacement assays read how much labelled ligand stays bound in the presence of the test substance.)
A short description of test [8]: Cytotoxicity against human C4-2B cells after 5 days by CellTitre Glo assay. It is filed as functional, cell-based. Conditions: LNCaP C4-2B, 120 h.
For test [9], the system named is LNCaP. Briefly: Cytotoxicity against human LNCAP cells at >/= 50 uM after 5 days by CellTitre Glo assay. It is filed as functional, cell-based.

Calls of active or inactive are those of the source. No cut-off for these calls is given here.

Chain of Neurotensin receptor type 1 (P20789 whole entry): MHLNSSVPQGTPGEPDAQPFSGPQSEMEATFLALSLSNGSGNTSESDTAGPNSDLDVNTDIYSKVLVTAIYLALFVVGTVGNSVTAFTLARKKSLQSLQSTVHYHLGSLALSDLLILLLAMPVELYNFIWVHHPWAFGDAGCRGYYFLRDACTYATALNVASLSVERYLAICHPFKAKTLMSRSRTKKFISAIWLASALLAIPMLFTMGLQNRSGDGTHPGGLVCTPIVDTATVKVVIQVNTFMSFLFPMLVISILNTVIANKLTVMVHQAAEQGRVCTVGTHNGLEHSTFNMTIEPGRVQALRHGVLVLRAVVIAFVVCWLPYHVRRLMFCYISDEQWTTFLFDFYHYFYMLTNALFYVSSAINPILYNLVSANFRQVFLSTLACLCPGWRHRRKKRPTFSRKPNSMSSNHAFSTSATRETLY

With `COc1cccc(OC)c1-c1cc(C(=O)NC2(C(=O)O)C3CC4CC(C3)CC2C4)nn1-c1ccnc2cc(Cl)ccc12` (centres undefined) [REMINERTANT], the result in test [1], in [2], in [5] and in test [9] was Active. Besides, the figures for the IC50 in test [3] and in test [8] were 238 nM and 30000 nM, respectively. Moreover, the Ki (as a rule, a dissociation constant, usually derived from enzyme kinetics or from competition with a known ligand) in test [4] came to 418 nM; in test [7], 2.6 nM. In addition, the outcome in test [6] was inactive.
